Key:
D(2) dopamine receptor = D(2) dopamine receptor (Homo sapiens, UniProt P14416)
Description: Partial agonist activity at D2 receptor (unknown origin) assessed as increase in cAMP accumulation

D(4) dopamine receptor = target: T1, D(4) dopamine receptor (Homo sapiens, UniProt P21917)
T1 sequence (P21917 whole entry): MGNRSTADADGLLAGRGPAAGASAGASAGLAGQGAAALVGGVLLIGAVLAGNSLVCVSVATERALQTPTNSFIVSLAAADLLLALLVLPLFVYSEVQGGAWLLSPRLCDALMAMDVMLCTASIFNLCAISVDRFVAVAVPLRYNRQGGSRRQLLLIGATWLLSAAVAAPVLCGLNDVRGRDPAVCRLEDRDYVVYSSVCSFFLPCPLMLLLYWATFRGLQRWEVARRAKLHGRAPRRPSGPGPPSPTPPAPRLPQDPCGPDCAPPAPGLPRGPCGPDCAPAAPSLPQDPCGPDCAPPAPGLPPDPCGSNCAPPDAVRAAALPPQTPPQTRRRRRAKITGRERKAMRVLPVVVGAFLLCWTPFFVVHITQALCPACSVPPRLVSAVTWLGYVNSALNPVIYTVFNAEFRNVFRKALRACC
Description: Partial agonist activity at human D4 receptor assessed as inhibition constant

D(3) dopamine receptor = D(3) dopamine receptor (Homo sapiens, UniProt P35462)
Chain of D(3) dopamine receptor (P35462 whole entry): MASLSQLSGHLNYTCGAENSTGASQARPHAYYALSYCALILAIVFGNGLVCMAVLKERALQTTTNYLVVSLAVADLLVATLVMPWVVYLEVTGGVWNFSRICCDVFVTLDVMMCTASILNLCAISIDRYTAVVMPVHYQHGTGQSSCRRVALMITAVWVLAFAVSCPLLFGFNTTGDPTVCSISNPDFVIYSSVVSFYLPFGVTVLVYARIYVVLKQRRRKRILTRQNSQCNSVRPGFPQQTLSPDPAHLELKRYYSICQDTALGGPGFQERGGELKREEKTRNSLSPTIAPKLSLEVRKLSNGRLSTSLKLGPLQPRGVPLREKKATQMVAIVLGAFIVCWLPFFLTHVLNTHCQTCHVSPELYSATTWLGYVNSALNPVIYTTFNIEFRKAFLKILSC
Description: Partial agonist activity at human D3 receptor assessed as inhibition constant

Chain of D(2) dopamine receptor (P14416 whole entry): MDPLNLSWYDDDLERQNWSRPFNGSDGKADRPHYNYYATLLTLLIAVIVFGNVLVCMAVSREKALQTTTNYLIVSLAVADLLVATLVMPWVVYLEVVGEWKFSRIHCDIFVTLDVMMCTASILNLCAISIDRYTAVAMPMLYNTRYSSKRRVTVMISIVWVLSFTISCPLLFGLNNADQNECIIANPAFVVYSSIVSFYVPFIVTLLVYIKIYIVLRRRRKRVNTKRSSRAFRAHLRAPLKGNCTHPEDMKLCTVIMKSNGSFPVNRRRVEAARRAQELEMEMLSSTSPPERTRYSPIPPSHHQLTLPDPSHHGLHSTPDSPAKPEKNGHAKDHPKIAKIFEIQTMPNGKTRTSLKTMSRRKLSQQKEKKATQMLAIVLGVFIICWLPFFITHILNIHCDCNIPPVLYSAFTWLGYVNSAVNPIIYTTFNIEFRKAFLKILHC

EC50 (D(2) dopamine receptor) | Ki (D(3) dopamine receptor) [nM] | Compound | Ki (D(4) dopamine receptor)
Not Active |  | Cn1ccc2c(N3CCN(CCCCOc4ccc5c(c4)NC(=O)CC5)CC3)cccc21 | 
 | 139 | CC1Cc2ccccc2N1C(=O)NCCCCN(C)[C@H]1Cc2cccc3[nH]c(=O)n(c23)C1 (some centres undefined) | Not Active
 |  | CN(C)C(=O)N[C@H]1CC[C@H](CCN2CCN(c3cccc(Cl)c3Cl)CC2)CC1 [CARIPRAZINE] | Not Active

— ChEMBL document CHEMBL5236546, “Potent and Subtype-Selective Dopamine D2 Receptor Biased Partial Agonists Discovered via an Ugi-Based Approach” (J Med Chem, 2021)
